According to patent US9394310B2, “Carbocycle-substituted purine and 7-deazapurine compounds” (Epizyme, Inc., priority 2010, dated 2016):
Counter-ions that a name gives are not always drawn.

Target: T1, DOT1L (1-416) (Homo sapiens, UniProt Q8TEK3)
T1 construct: 40 μl per well of DOT1L (1-416) (0.25 nM final concentration in assay buffer)
Test: Determination of IC50: DOT1L (1-416) methyltransferase assay with 3H-SAM and oligonucleosome, Flashplate scintillation readout
Assay type: biochemical
Conditions: 0.25 nM DOT1L (1-416), 30 min preincubation, 120 min reaction at room temperature, oligonucleosome substrate
Method: Compound was serially diluted 3 fold in DMSO for 10 points and 1 μl was plated in a 384 well microtiter plate. Positive control (100% inhibition standard) was 2.5 uM final concentration of S-adenosyl-L-homocysteine and negative control (0% inhibition standard) contained 1 μl of DMSO. Compound was then incubated for 30 minutes with 40 μl per well of DOT1L (1-416) (0.25 nM final concentration in assay buffer: 20 mM TRIS, pH 8.0, 10 mM NaCl, 0.002% Tween20, 0.005% Bovine Skin Gelatin, 100 mM KCl, and 0.5 mM DTT). 10 μl per well of substrate mix (same assay buffer with 200 nM S—[methyl-^3H]-adenosyl-L methionine, 600 nM of unlabeled […], and 20 nM oligonucleosome) was added to initiate the reaction. Reaction was incubated for 120 minutes at room temperature and quenched with 10 μl per well of 100 μM S-methyl-adenosyl-L methionine. For detection, substrate from 50 μl of reaction was immobilized on a 384 well Streptavidin coated Flashplate (Perkin Elmer) (also coated with 0.2% polyethyleneimine) and read on a Top Count scintillation counter (Perkin Elmer).

T1 sequence (Q8TEK3 1-416): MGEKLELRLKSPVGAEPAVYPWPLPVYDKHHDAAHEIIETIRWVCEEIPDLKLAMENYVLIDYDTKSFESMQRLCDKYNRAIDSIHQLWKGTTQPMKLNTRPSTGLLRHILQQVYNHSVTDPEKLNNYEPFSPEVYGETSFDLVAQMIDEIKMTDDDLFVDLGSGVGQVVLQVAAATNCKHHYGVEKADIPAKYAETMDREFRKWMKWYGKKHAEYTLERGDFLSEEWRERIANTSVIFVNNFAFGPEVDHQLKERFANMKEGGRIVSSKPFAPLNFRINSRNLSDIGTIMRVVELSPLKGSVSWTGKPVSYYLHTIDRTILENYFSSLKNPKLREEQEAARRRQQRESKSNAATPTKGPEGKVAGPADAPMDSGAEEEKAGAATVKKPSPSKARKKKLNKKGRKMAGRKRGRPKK

`CS(=O)(=O)N(CCCCc1nc2cc(C(F)(F)F)c(Cl)cc2[nH]1)C[C@H]1C[C@@H](n2ccc3c(NC4CC4)ncnc32)[C@H](O)[C@@H]1O` [Compound 12, N-(4-(6-chloro-5-(trifluoromethyl)-1H-benzo[d]imidazol-2-yl)butyl)-N-(((1R,2R,3S,4R)-4-(4-(cyclopropylamino)-7H-pyrrolo[2,3-d]pyrimidin-7-yl)-2,3-dihydroxycyclopentyl)methyl)-methanesulfonamide] and `CN(CCCCc1nc2cc(C(F)(F)F)c(Cl)cc2[nH]1)C[C@H]1C[C@@H](n2ccc3c(NC4CC4)ncnc32)[C@H](O)[C@@H]1O` [Compound 5, (1S,2R,3R,5R)-3-(((4-(6-chloro-5-(trifluoromethyl)-1H-benzo[d]imidazol-2-yl)butyl)(methyl)amino)methyl)-5-(4-(cyclopropylamino)-7H-pyrrolo[2,3-d]pyrimidin-7-yl)cyclopentane-1,2-diol] cannot be ordered by IC50: under 1000 nM for the first, under 100 nM for the second.

`CC(C)N(CCCCc1nc2cc(C(F)(F)F)c(Cl)cc2[nH]1)C[C@H]1C[C@@H](n2ccc3c(NC4CC4)ncnc32)[C@H](O)[C@@H]1O` [Compound 4, (1S,2R,3R,5R)-3-(((4-(6-chloro-5-(trifluoromethyl)-1H-benzo[d]imidazol-2-yl)butyl)(isopropyl)amino)methyl)-5-(4-(cyclopropylamino)-7H-pyrrolo[2,3-d]pyrimidin-7-yl)cyclopentane-1,2-diol] and `CC(C)N(CCCCc1nc2cc(Cl)c(Cl)cc2[nH]1)C[C@H]1C[C@@H](n2ccc3c(NC4CC4)ncnc32)[C@H](O)[C@@H]1O` [Compound 9, (1R,2S,3R,5R)-3-(4-(cyclopropylamino)-7H-pyrrolo[2,3-d]pyrimidin-7-yl)-5-(((4-(5,6-dichloro-1H-benzo[d]imidazol-2-yl)butyl)(isopropyl)amino)methyl)-cyclopentane-1,2-diol trihydrochloride] cannot be ordered by IC50: under 100 nM for the first, under 100 nM for the second.

`CC(C)N(CCCCc1nc2cc(C(F)(F)F)c(Cl)cc2[nH]1)C[C@H]1C[C@@H](n2ccc3c(N)ncnc32)[C@H](O)[C@@H]1O` [Compound 14, (1R,2S,3R,5R)-3-(4-amino-7H-pyrrolo[2,3-d]pyrimidin-7-yl)-5-(((4-(6-chloro-5-(trifluoromethyl)-1H-benzo[d]imidazol-2-yl)butyl)(isopropyl)amino)methyl)-cyclopentane-1,2-diol] and `CN(CCCCc1nc2cc(C(F)(F)F)c(Cl)cc2[nH]1)C[C@H]1C[C@@H](n2ccc3c(N)ncnc32)[C@H](O)[C@@H]1O` [Compound 13, (1R,2S,3R,5R)-3-(4-amino-7H-pyrrolo[2,3-d]pyrimidin-7-yl)-5-(((4-(6-chloro-5-(trifluoromethyl)-1H-benzo[d]imidazol-2-yl)butyl)(methyl)amino)methyl)-cyclopentane-1,2-diol] cannot be ordered by IC50: under 100 nM for the first, under 100 nM for the second.

`CS(=O)(=O)N(CCCCc1nc2cc(Cl)c(Cl)cc2[nH]1)C[C@H]1C[C@@H](n2ccc3c(NC4CC4)ncnc32)[C@H](O)[C@@H]1O` [Compound 16, N-(((1R,2R,3S,4R)-4-(4-(cyclopropylamino)-7H-pyrrolo-[2,3-d]pyrimidin-7-yl)-2,3-dihydroxycyclopentyl)methyl)-N-(4-(5,6-dichloro-1H-benzo[d]imidazol-2-yl)butyl)methanesulfonamide] and `CN(CCCCc1nc2cc(Cl)c(Cl)cc2[nH]1)C[C@H]1C[C@@H](n2ccc3c(NC4CC4)ncnc32)[C@H](O)[C@@H]1O` [Compound 8, (1R,2S,3R,5R)-3-(4-(cyclopropylamino)-7H-pyrrolo[2,3-d]pyrimidin-7-yl)-5-(((4-(5,6-dichloro-1H-benzo[d]imidazol-2-yl)butyl)(methyl)amino)methyl)-cyclopentane-1,2-diol] cannot be ordered by IC50: under 10000 nM for the first, under 100 nM for the second.

`CC(C)N(CCCCc1nc2cc(C(C)(C)C)ccc2[nH]1)C[C@@H]1C[C@@H](n2ccc3c(N)ncnc32)[C@H](O)[C@@H]1O` [Compound 2, (1R,2S,3R,5S)-3-(4-amino-7H-pyrrolo[2,3-d]pyrimidin-7-yl)-5-(((4-(5-tert-butyl-1H-benzo[d]imidazol-2-yl)butyl)(isopropyl)amino)methyl)-cyclopentane-1,2-diol] and `CC(C)N(CCCCc1nc2cc(C(C)(C)C)ccc2[nH]1)C[C@H]1C[C@@H](n2ccc3c(N)ncnc32)[C@H](O)[C@@H]1O` [Compound 1, (1R,2S,3R,5R)-3-(4-amino-7H-pyrrolo[2,3-d]pyrimidin-7-yl)-5-(((4-(5-tert-butyl-1H-benzo[d]imidazol-2-yl)butyl)(isopropyl)amino)methyl)-cyclopentane-1,2-diol] cannot be ordered by IC50: under 100 nM for the first, under 100 nM for the second.

`CN(CCCCc1nc2ccc(C(F)(F)F)cc2[nH]1)C[C@H]1C[C@@H](n2ccc3c(NC4CC4)ncnc32)[C@H](O)[C@@H]1O` [Compound 7, (1R,2S,3R,5R)-3-(4-(cyclopropylamino)-7H-pyrrolo[2,3-d]pyrimidin-7-yl)-5-((methyl(4-(6-(trifluoromethyl)-1H-benzo[d]imidazol-2-yl)butyl)amino)methyl)-cyclopentane-1,2-diol] and `CC(C)N(CCCCc1nc2ccc(C(F)(F)F)cc2[nH]1)C[C@H]1C[C@@H](n2ccc3c(NC4CC4)ncnc32)[C@H](O)[C@@H]1O` [Compound 6, (1R,2S,3R,5R)-3-(4-(cyclopropylamino)-7H-pyrrolo[2,3-d]pyrimidin-7-yl)-5-((isopropyl-(4-(6-(trifluoromethyl)-1H-benzo[d]imidazol-2-yl)butyl)amino)methyl)-cyclopentane-1,2-diol] cannot be ordered by IC50: under 100 nM for the first, under 100 nM for the second.

`CS(=O)(=O)N(CCCCc1nc2cc(C(F)(F)F)c(Cl)cc2[nH]1)C[C@H]1C[C@@H](n2ccc3c(N)ncnc32)[C@H](O)[C@@H]1O` [Compound 15, N-(((1R,2R,3S,4R)-4-(4-amino-7H-pyrrolo[2,3-d]pyrimidin-7-yl)-2,3-dihydroxycyclopentyl)methyl)-N-(4-(6-chloro-5-(trifluoromethyl)-1H-benzo[d]imidazol-2-yl)butyl)methanesulfonamide] and `CS(=O)(=O)N(CCCCc1nc2cc(C(F)(F)F)ccc2[nH]1)C[C@H]1C[C@@H](n2ccc3c(NC4CC4)ncnc32)[C@H](O)[C@@H]1O` [Compound 17, N-(((1R,2R,3S,4R)-4-(4-(cyclopropylamino)-7H-pyrrolo-[2,3-d]pyrimidin-7-yl)-2,3-dihydroxycyclopentyl)methyl)-N-(4-(5-(trifluoromethyl)-1H-benzo[d]imidazol-2-yl)butyl)methanesulfonamide] cannot be ordered by IC50: under 1000 nM for the first, under 10000 nM for the second.

`CN(CCCNC(=O)Nc1ccc(C(C)(C)C)cc1)C[C@@H]1C[C@@H](n2cnc3c(N)ncnc32)[C@H](O)[C@@H]1O` [Compound 3, 1-(3-((((1S,2R,3S,4R)-4-(6-amino-9H-purin-9-yl)-2,3-dihydroxycyclopentyl)methyl)-(methyl)amino)propyl)-3-(4-(tert-butyl)phenyl)urea] and `CN(CCCNC(=O)Nc1ccc(C(C)(C)C)cc1)C[C@H]1C[C@@H](n2cnc3c(N)ncnc32)[C@H](O)[C@@H]1O` [Compound 10, 1-(3-((((1R,2R,3S,4R)-4-(6-amino-9H-purin-9-yl)-2,3-dihydroxycyclopentyl)methyl)(meth-yl)amino)propyl)-3-(4-(tert-butyl)phenyl)urea] cannot be ordered by IC50: under 1000 nM for the first, under 100 nM for the second.

Compound `CC(C)(C)c1ccc2[nH]c(CCCCN(C[C@H]3C[C@@H](n4ccc5c(NC6CC6)ncnc54)[C@H](O)[C@@H]3O)S(C)(=O)=O)nc2c1` [Compound 11, N-(4-(5-(tert-butyl)-1H-benzo[d]imidazol-2-yl)butyl)-N-(((1R,2R,3S,4R)-4-(4-(cyclopropylamino)-7H-pyrrolo[2,3-d]pyrimidin-7-yl)-2,3-dihydroxycyclopentyl)methyl)-methanesulfonamide] has an IC50 of under 1000 nM.
